One assay concerns the target T1, RGS4 (Rattus norvegicus, UniProt P49799).
T1 construct: made in house
T1 sequence (P49799 52-205 limits assumed): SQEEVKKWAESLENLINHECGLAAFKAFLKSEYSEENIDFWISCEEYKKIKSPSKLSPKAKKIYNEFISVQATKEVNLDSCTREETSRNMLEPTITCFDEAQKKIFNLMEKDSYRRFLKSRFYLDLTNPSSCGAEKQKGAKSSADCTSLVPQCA
The experiment in a line: FCPIA (flow cytometry protein interaction assay), RGS4-Gαo interaction, wild type RGS4 (MBP-RGS4Δ51N). The class given is binding. Particulars: peptide 50 μM; 25 nM Gαo-Alexa Fluor-532, 5 nM RGS4-biotin. As for the experimental part: (§1) We recently described a bead-based screen in which 2.5 × 10^6 different peptide sequences were prepared as a OBOC library. Fluorescently labeled RGS4 was used to probe the library for peptides that bind RGS4 [5]. […] Since the majority of those hit peptides could bind tightly to the RGS without disrupting GAP activity, they were also tested in the flow cytometry protein interaction assay (FCPIA) (Figure 1), which measures the interaction between RGS4 and Gαo. In this method we used a Luminex flow cytometer to detect the binding of Alexa Fluor 532-labeled Gαo to biotinylated RGS4 on avidin beads in the presence of AMF (AlCl3, MgCl2, NaF and GDP) to put the Gα subunit into a transition state-like conformation. Peptides were tested at 50 μM except where limited by solubility (Table 1).
Figure 1 Hit peptides in the FCPIA. Hit peptides from Roof, et al. 2008 were tested at 50 μM unless otherwise indicated for ability to disrupt the RGS4-Gαo interaction as described using 25 nM Gα o-Alexa Fluor-532 and 5 nM wild type RGS4-biotin (mean ± S.E.M., n ≥ 3) *p < 0.05, **p < 0.01, ***p < 0.001 compared to no peptide.
Proteins were expressed, purified and labeled as described previously. The mutagenesis was done using the "QuickChange Multi Site-Directed Mutagenesis Kit" from Stratagene according to the manufacturer's protocol. The construct of RGS4 used in these studies is a maltose binding protein (MBP-) fusion protein of the RGS4 sequence from which the amphipathic N-terminal helix has been removed (i.e. MBP-RGS4Δ51N). For simplicity in the text, this will be referred to as RGS4. All other RGS proteins were human sequences and were used as Mpb fusions: RGS7 RGS domain (aa: 305–453), RGS8 full length, RGS16 full length, and RGS19ΔC11 (amino acids 1–209). To cleave RGS4Δ51N from the MBP-His6 construct for MS analysis, MBP-His6-RGS4Δ51N was treated with 15% MBP-His6-TEV protease S219V [11] for 22 hours at 4°C and purified over a Ni-NTA column.
FCPIA was performed as previously published.

The target in another assay is T2, RGS19 (Homo sapiens, UniProt P49795).
T2 construct: RGS19ΔC11 (amino acids 1–209); made in house
T2 sequence (P49795 1-209): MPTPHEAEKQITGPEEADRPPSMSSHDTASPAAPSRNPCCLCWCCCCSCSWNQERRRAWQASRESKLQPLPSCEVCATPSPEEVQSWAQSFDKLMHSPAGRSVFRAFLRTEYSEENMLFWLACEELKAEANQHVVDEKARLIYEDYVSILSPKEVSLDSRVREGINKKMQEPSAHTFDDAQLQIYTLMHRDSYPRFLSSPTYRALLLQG
The experiment in a line: FCPIA, Gαo binding to RGS19. To be noted: Figure 2. As for the experimental part: as §1
5nd inhibited Gαo binding to a number of different RGS proteins (Figure 2). […] RGS19 and RGS7 are in the RZ and R7 families, respectively and show less inhibition by 5nd. Linear as well as bridged versions of peptide 5 were tested in the FCPIA since cyclization yields would most likely have been less then 100% in the synthesis of the library leaving some linear peptides present on each bead. […] This may be due to lack of structural rigidity necessary for the correct interaction of the peptide with the RGS protein or a role for chemical reactivity of the disulfide.
Figure 2 Characterization of hit 5. […]

A further assay addresses T3, RGS4Δ51N (Rattus norvegicus, UniProt P49799).
T3 construct: MBP (N, cleaved yes); His6 (N, cleaved yes); made in house
T3 sequence (P49799 52-205 limits assumed): T1 sequence (P49799 52-205 limits assumed)
The assay is described as follows: MALDI MS analysis of covalent adduct with RGS4Δ51N. To be noted: 250 μM 5nd. As for the experimental part:
To directly test for the formation of a covalent adduct between 5nd and RGS4, we performed mass spectrometry (MS) analysis. The RGS4Δ51N protein, following TEV-protease cleavage from the MBP-His6 construct, was treated with 5nd at a 50:1 molar ratio. An adduct to the protein that is consistent with the mass of 5nd binding through a disulfide bridge was observed by MS (Figure 4, mass shift observed: Δ999.2 ± 1; expected: Δ998.5). […] There is also a small peak that may represent two peptides per RGS (observed: Δ1999.1 ± 2; expected: Δ1997.0).
Figure 4 MS analysis of RGS4 with and without 5nd pretreatment. RGS4Δ51N was cleaved from the MBP-His6 construct and subject to MALDI MS after pretreatment with DMSO (A) or 5nd (250 μM) (B). Both spectra show the region between 4,000 and 30,000 m/z and have the peak at 18158.8 or 18158.2 m/z for A and B, respectively, which corresponds to the cleaved RGS4Δ51N protein (black arrows). The spectrum in B also has a peak at 19158 m/z that corresponds to a peptide adduct (grey arrows). There is a very small peak at 20157.9 that may correspond to 2 peptides per RGS (grey arrows). The inset is a blow-up of the region between 17500 and 20500 m/z.
Total mass MS of 5 μM RGS4Δ51N was analyzed on a MicroMX MALDI MS instrument in positive ion mode with an accuracy of ± 0.1% after pretreatment with DMSO or 250 μM 5nd. […]

“And” between values parts separate entries of the source, which are not always exact repeats. Identical values can stand only once. Like-named read-outs stand apart in the source and are kept apart here. Marks after values point to notes of the source that are not given here. Where a SMILES comes first, the peptide text is derived from it. Bridges are numbered along the chain shown (N, C = ends).

Take `CC(C)C[C@@H]1NC(=O)CNC(=O)[C@H](CCCCN)NC(=O)[C@@H](NC(=O)[C@H](Cc2c[nH]c3ccccc23)NC(=O)[C@@H](N)Cc2ccc(O)cc2)CSSC[C@@H](C(=O)N[C@@H](CCCCN)C(N)=O)NC1=O` [Peptide 5nd, Tyr-Trp-c [Cys-Lys-Gly-Leu-Cys]-Lys-NH2, S-S] (H-YWCKGLCK-NH2; disulfide 3-7): the “% Inhibition of RGS4-Gαo” value at RGS4 is given as 80 ± 5*** %. The IC50 on RGS19 (read-out: logIC50, RGS19 (converted)) was approximately 145 µM; at RGS19 (dose response, read-out: IC50, Gαo binding to RGS19) it was 145 µM and ~145 µM. Besides, on RGS4Δ51N (5 μM RGS4Δ51N (50:1), expected Δ998.5), the “mass shift observed, adduct of one peptide per RGS” value is 999.2 ± 1. Moreover, the “mass shift observed, small peak that may represent two peptides per RGS” value at RGS4Δ51N (5 μM RGS4Δ51N, expected Δ1997.0) is 1999.1 ± 2.

The values above are taken from article PMC2700083, “A covalent peptide inhibitor of RGS4 identified in a focused one-bead, one compound library screen” (BMC Pharmacology, 2009).
